Laboratory results from patent US20080214646A1 (priority 2005, published 2008).
Several values for one entry are separate records, joined by “and”; a condition that tells them apart may be missing. Equal values may be shown once. Marks after values point to notes of the source that are not given here.

Legend:
[1] = test system: carrageenan-induced rat paw edema; experiment: Carrageenan-induced rat paw edema anti-inflammatory assay; type: in vivo; conditions: for ED50: 3 h after oral administration, rat, read-out: AI activity ID50
[2] = target: T1, ovine COX-2 (Ovis aries, UniProt P79208); experiment: In vitro ovine COX-2 enzyme inhibition (EIA kit); type: biochemical; conditions: for IC50: ovine COX-2, mean of two determinations
T1 construct: purchased Cayman Chemical 560101
T1 sequence (P79208 17-603): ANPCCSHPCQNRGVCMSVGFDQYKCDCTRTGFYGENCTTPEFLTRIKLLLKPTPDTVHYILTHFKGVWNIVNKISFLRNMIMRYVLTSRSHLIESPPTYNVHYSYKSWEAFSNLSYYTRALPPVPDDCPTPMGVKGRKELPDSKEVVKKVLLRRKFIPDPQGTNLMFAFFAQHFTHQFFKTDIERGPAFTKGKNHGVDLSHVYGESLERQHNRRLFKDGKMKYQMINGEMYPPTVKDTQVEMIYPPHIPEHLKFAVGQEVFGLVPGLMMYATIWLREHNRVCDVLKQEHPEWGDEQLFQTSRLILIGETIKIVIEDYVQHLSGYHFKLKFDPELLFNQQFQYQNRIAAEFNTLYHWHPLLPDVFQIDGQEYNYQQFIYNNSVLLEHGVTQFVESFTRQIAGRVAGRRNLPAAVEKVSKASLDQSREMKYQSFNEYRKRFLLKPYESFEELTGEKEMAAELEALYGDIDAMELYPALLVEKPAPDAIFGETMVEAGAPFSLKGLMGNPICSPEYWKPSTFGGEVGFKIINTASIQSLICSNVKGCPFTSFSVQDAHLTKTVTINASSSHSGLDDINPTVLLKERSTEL

[3] = Nitric oxide release in phosphate buffer (Griess reaction); type: physicochemical; conditions: PBS pH 7.4, 37° C., 1.5 h; relative to theoretical maximum 2 mol NO/mol
Procedure: (§1) Nitric Oxide Release Assay: In vitro nitric oxide release, upon incubation with phosphate buffer, pig liver esterase, or guinea pig serum, was determined by quantification of nitrite produced by the reaction of nitric oxide with oxygen and water using the Griess reaction.

[4] = test system: gastric ulcers; experiment: Acute ulcerogenesis assay (gastric ulcer index); type: in vivo, rats; conditions: oral, 6 h, rat
Procedure: All drugs were suspended and administered in 1.7 mL of a 1% methylcellulose solution. Control rats received oral administration of vehicle (1.7 mL of 1.0% methylcellulose solution). Food, but not water, was removed 24 h before administration of test compounds. Six hours after oral administration of the drug, rats were euthanized in a CO2 chamber and their stomachs were removed, cut out along the greater curvature of the stomach, gently rinsed with water and placed on ice. The number and the length of ulcers were determined using a magnifier lens. […] The average overall length (in mm) of individual ulcers in each tissue was designated as the “ulcer index”. Each experimental group consisted of four rats.

[5] = target: T2, ovine COX-1 (Ovis aries, UniProt P05979); experiment: In vitro ovine COX-1 enzyme inhibition (EIA kit); type: biochemical; conditions: mean of two determinations
T2 construct: purchased Cayman Chemical 560101
T2 sequence (P05979 25-600): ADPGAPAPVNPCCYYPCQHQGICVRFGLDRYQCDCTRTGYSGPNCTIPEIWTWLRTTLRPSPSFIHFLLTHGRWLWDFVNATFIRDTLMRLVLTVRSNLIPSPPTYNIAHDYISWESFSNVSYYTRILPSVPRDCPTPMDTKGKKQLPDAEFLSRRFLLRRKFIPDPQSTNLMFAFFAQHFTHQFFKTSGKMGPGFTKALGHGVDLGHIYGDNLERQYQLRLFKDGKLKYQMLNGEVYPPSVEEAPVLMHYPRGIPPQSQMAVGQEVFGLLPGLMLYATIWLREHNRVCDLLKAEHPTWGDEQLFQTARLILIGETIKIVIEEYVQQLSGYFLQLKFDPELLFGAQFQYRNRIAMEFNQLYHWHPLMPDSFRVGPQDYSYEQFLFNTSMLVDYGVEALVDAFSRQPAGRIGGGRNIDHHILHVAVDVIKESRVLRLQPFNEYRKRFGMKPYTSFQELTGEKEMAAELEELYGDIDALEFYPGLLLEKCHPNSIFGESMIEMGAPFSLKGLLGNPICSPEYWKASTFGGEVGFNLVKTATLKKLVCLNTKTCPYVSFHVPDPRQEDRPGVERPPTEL

[6] = test system: pig liver esterase; conditions: 1.5 h, pH 7.4
Procedure: as §1

[7] = equivalent amount to 250 mg of aspirin/kg
[8] = equivalent amount to 250 mg of ibuprofen/kg

SMILES	ED50 [1] [mg/kg]	COX-2 S.I. (COX-1 IC50/COX-2 IC50) ([2]; selectivity index)	% of Nitric oxide released, PBS (pH 7.4) [3] [%]	Ulcer index [4, 7]	IC50 [5] [µM]	% of Nitric oxide released, PLE [6] [%]	IC50 [2] [µM]	Ulcer index [4, 8]	Ulcer index ([4]; equivalent amount to 30 mg of indomethacin/kg)	fold less potent relative to the parent drug (ID50) ([1]; carrageenan-induced rat paw edema, oral)
CC(C)Cc1ccc(C(C)C(=O)O)cc1 (racemic) [Ibuprofen, ibuprofen, reference compound]	67.4	–	–	–	–	–	–	–	–	–
CC(=O)Oc1ccccc1C(=O)O [Aspirin, Acetyl salicylic acid, reference compound]	129	0.14	–	–	–	–	–	–	–	–
CN(C)[N+]([O-])=N[O-].[Na+] [Compound 7, O^2-Sodium 1-(N,N-dimethylamino)diazen-1-ium-1,2-diolate, reference compound]	–	–	95.2 ± 0.1	–	–	–	–	–	–	–
CC(=O)Oc1ccccc1C(=O)OCON=[N+]([O-])N1CCCC1 [Compound 11, O^2(Acetylsalicyloyloxymethyl)-1-(pyrrolidin-1-yl)diazen-1-ium-1,2-diolate]	182	–	14.8 ± 0.1	0 mm and 0^d mm	> 100	18.5 ± 0.1	> 100	–	–	–
CC(=O)Oc1ccccc1C(=O)OCON=[N+]([O-])N(C)C [Compound 12, O^2(Acetylsalicyloyloxymethyl)-1-(N,N-dimethylamino)diazen-1-ium-1,2-diolate]	151	–	15.4 ± 0.1	0 mm and 0^d mm	> 100	19.1 ± 0.1	> 100	–	–	–
CC(C)Cc1ccc(C(C)C(=O)OCON=[N+]([O-])N2CCCC2)cc1 (stereo not drawn) [Compound 13, O^2-[2-(4-(Isobutyl)phenyl)propanoyloxymethyl]-1-(pyrrolidin-1-yl)diazen-1-ium-1,2-diolate]	66.8	–	14.9 ± 0.1	–	> 100	16.3 ± 0.1	> 100	0 mm and 0^e mm	–	–
CC(C)Cc1ccc(C(C)C(=O)OCON=[N+]([O-])N(C)C)cc1 (stereo not drawn) [Compound 14, O^2-[2-(4-(Isobutyl)phenyl)propanoyloxymethyl]-1-(N,N-dimethylamino)diazen-1-ium-1,2-diolate]	62.3	–	16.1 ± 0.1	–	> 100	17.3 ± 0.1	> 100	0 mm and 0^e mm	–	–
COc1ccc2c(c1)c(CC(=O)OCON=[N+]([O-])N1CCCC1)c(C)n2C(=O)c1ccc(Cl)cc1 [Compound 15, O^2-[2-(1-(4-Chlorobenzoyl)-5-methoxy-2-methyl-1H-indol-3-yl)acetoxymethyl]-1-(pyrrolidin-1-yl)diazen-1-ium-1,2-diolate]	10.7	–	15.1 ± 0.1	–	> 100	16.3 ± 0.1	> 100	–	0.7 ± 0.11^f mm	about 2.5 fold
COc1ccc2c(c1)c(CC(=O)OCON=[N+]([O-])N(C)C)c(C)n2C(=O)c1ccc(Cl)cc1 [Compound 16, O^2-[2-(1-(4-Chlorobenzoyl)-5-methoxy-2-methyl-1H-indol-3-yl)acetoxymethyl]-1-(dimethylamino)diazen-1-ium-1,2-diolate]	5.9	–	14.3 ± 0.1	–	> 100	16.9 ± 0.1	> 100	–	–	–
COc1ccc2c(c1)c(CC(=O)O)c(C)n2C(=O)c1ccc(Cl)cc1 [Indomethacin, indomethacin, reference compound]	4.2	–	–	–	–	–	–	–	–	–
[Na+].[O-]N=[N+]([O-])N1CCCC1 [O^2-sodium 1-(pyrrolidin-1-yl)diazen-1-ium-1,2-diolate, reference compound]	–	–	94.0 ± 0.1	–	–	–	–	–	–	–
